Test results from patent publication US20210400967A1, “COMPOSITIONS COMPRISING PYRIDINE CARBOXYLATE HERBICIDES WITH GLYPHOSATE OR GLUFOSINATE” (Corteva Agriscience LLC, priority 2018, published 2021).

Experiments:
Assay type in all cases: in vivo
[1] = tested on: Cirsium arvense (Canadian thistle); test: Greenhouse postemergence herbicidal effect, Canadian thistle (CIRAR); settings: 20-22 d
Source text: (§1) Greenhouse Trial Methodology—Evaluation of Postemergence Herbicidal Effect
(§2) Seeds of the desired test plant species were planted in a 90:10% v/v (volume/volume) mixture of PRO-MIX® BX (Premier Tech Horticulture, Quakertown, Pa., USA) and PROFILE® GREENS GRADE™ (Profile Products LLC, Buffalo Grove, Ill., USA) planting mixture, which typically has a pH of 5.2 to 6.2 and an organic matter content of at least 50 percent, in plastic pots with a surface area of 103.2 square centimeters (cm^2). In some aspects, to ensure good germination and healthy plants, a fungicide treatment and/or other chemical or physical treatment was applied. The plants were grown for 7-36 days (d) in a greenhouse with an approximate 14-hour (h) photo-period which was maintained at about 23° C. during the day and 22° C. during the night. Nutrients and water were added on a regular basis and supplemental lighting was provided with overhead metal halide 1000-Watt lamps as necessary. The plants were employed for testing when they reached the second or third true leaf stage.
(§3) Emulsifiable concentrates of each of each pyridine carboxylate herbicide (Compound A or Compound B) were prepared at 100 grams acid equivalent per liter (g ae/L). The emulsifiable concentrates also included a safener, cloquintocet-mexyl, at 120 grams active ingredient per liter (g ai/L). An aliquot of each emulsifiable concentrate was placed in a 25 mL glass vial and diluted with an aqueous mixture of 1.25% (v/v) ACTIROB® B esterified rapeseed oil (Bayer Crop Science, Research Triangle Park, N.C., USA) or MSO® Concentrate with LECI-TECH® methylated soybean oil (Loveland Products, Loveland, Colo., USA) to obtain concentrated stock solutions at the highest application rate for each herbicide, based upon a 12 milliliter (mL) application volume at a rate of 187 liters per hectare (L/ha). The concentrated stock solutions were further diluted with an aqueous mixture of 1.25% v/v ACTIROB® B or MSO® Concentrate with LECI-TECH® to obtain stock solutions at reduced application rates for each herbicide. Spray solutions of the herbicide combinations (Compound A or Compound B plus glyphosate or glufosinate) were prepared by adding weighed amounts or aliquots of the glyphosate or glufosinate to the stock solutions of Compound A or Compound B to form 12-mL spray solutions in two-way combinations.
(§4) The spray solutions were applied to the plant material with an overhead Mandel track sprayer equipped with 8002E nozzles calibrated to deliver 187 L/ha over an application area of 0.503 square meters (m^2) at a spray height of 18 inches (43 centimeters (cm)) above the average plant canopy. Control plants were sprayed in the same manner with the solvent blank. All pyridine carboxylate herbicide (component a) application rates are given as “g ae/ha” and all glyphosate or glufosinate (component b) application rates are given as “g ai/ha.”
(§5) The treated plants and control plants were placed in a greenhouse as described above and watered by sub-irrigation to prevent wash-off of the test compounds. After 20-22 d, the condition of the test plants as compared with that of the control plants was determined visually and scored on a scale of 0 to 100 percent where 0 corresponds to no injury and 100 corresponds to complete kill.

[2] = tested on: Hordeum vulgare (spring barley); test: Greenhouse postemergence phytotoxicity on crop, spring barley (HORVS); settings: Example 6; Glufosinate 112.5 g ai/ha alone; 20-22 d
Source text: as §1, §2, §3, §4, §5

[3] = tested on: Abutilon theophrasti (velvetleaf); test: Greenhouse postemergence herbicidal effect, velvetleaf (ABUTH); settings: Example 4; Glufosinate 112.5 g ai/ha alone; 20-22 d
Source text: as §1, §2
(§6) Emulsifiable concentrates of each of each pyridine carboxylate herbicide (Compound A or Compound B) were prepared at 100 grams acid equivalent per liter (g ae/L). The emulsifiable concentrates also included a safener, cloquintocet-mexyl, at 120 grams active ingredient per liter (g ai/L). […]
as §5

[4] = tested on: Polygonum convolvulus (wild buckwheat); test: Greenhouse postemergence herbicidal effect, wild buckwheat (POLCO); settings: 20-22 d
Source text: as §1, §2, §3, §4, §5

[5] = tested on: Cyperus esculentus (nutsedge); test: Greenhouse postemergence herbicidal effect, nutsedge (CYPES); settings: Example 5; Glufosinate 70 g ai/ha alone; 20-22 d
Source text: as §1, §2, §6, §5

[6] = tested on: Amaranthus retroflexus (pigweed); test: Greenhouse postemergence herbicidal effect, pigweed (AMARE); settings: Example 6; Glufosinate 112.5 g ai/ha alone; 20-22 d
Source text: as §1, §2, §3, §4, §5

[7] = tested on: Brassica napus (spring rape); test: Greenhouse postemergence herbicidal effect, spring rape (BRSNN); settings: Example 4; Glufosinate 112.5 g ai/ha alone; 20-22 d
Source text: as §1, §2, §3, §4, §5

[8] = tested on: Matricaria chamomilla (wild chamomile); test: Greenhouse postemergence herbicidal effect, wild chamomile (MATCH); settings: Example 6; Glufosinate 112.5 g ai/ha alone; 20-22 d
Source text: as §1, §2, §3, §4, §5

[9] = tested on: Sinapis arvensis (wild mustard); test: Greenhouse postemergence herbicidal effect, wild mustard (SINAR); settings: Example 6; Glufosinate 112.5 g ai/ha alone; 20-22 d
Source text: as §1, §2, §3, §4, §5

[10] = tested on: Brassica napus (winter rape); test: Greenhouse postemergence herbicidal effect, winter rape (BRSNW); settings: Example 6; Glufosinate 112.5 g ai/ha alone; 20-22 d
Source text: as §1, §2, §3, §4, §5

[11] = tested on: Stellaria media (chickweed); test: Greenhouse postemergence herbicidal effect, chickweed (STEME); settings: Example 5; Glufosinate 70 g ai/ha alone; 20-22 d
Source text: as §1, §2, §6, §5

[12] = tested on: Setaria faberi (giant foxtail); test: Greenhouse postemergence herbicidal effect, giant foxtail (SETFA); settings: Example 4; Glufosinate 112.5 g ai/ha alone; 20-22 d
Source text: as §1, §2, §3, §4, §5

[13] = tested on: Chenopodium album L. (common lambsquarters); test: Greenhouse postemergence herbicidal effect, common lambsquarters (CHEAL); settings: Glufosinate 112.5 g ai/ha alone, 20-22 d
Source text: as §1, §2, §3, §4, §5

[14] = tested on: Euphorbia heterophylla (poinsettia); test: Greenhouse postemergence herbicidal effect, poinsettia (EPHHL); settings: Example 5; Glufosinate 70 g ai/ha alone; 20-22 d
Source text: as §1, §2, §6, §5

[15] = tested on: Ipomoea hederacea (ivyleaf morningglory); test: Greenhouse postemergence herbicidal effect, ivyleaf morningglory (IPOHE); settings: Example 5; Glufosinate 70 g ai/ha alone; 20-22 d
Source text: as §1, §2, §6, §5

[16] = tested on: Rumex obtusifolius (broad-leaf dock); test: Greenhouse postemergence herbicidal effect, broad-leaf dock (RUMOB); settings: Example 5; Glufosinate 70 g ai/ha alone; 20-22 d
Source text: as §1, §2, §6, §5

[17] = tested on: Sorghum vulgare (grain sorghum); test: Greenhouse postemergence herbicidal effect, grain sorghum (SORVU); settings: Example 5; Glufosinate 70 g ai/ha alone; 20-22 d
Source text: as §1, §2, §6, §5

[18] = tested on: Viola tricolor (wild pansy); test: Greenhouse postemergence herbicidal effect, wild pansy (VIOTR); settings: 20-22 d
Source text: as §1, §2, §3, §4, §5

[19] = tested on: Echinochloa crus-galli (barnyardgrass); test: Greenhouse postemergence herbicidal effect, barnyardgrass (ECHCG); settings: Example 5; Glufosinate 70 g ai/ha alone; 20-22 d
Source text: as §1, §2, §6, §5

[20] = tested on: Triticum aestivum (spring wheat); test: Greenhouse postemergence phytotoxicity on crop, spring wheat (TRZAS); settings: Example 6; Glufosinate 112.5 g ai/ha alone; 20-22 d
Source text: as §1, §2, §3, §4, §5

[21] = tested on: Salsola kali (Russian thistle); test: Greenhouse postemergence herbicidal effect, Russian thistle (SASKR); settings: Example 6; Glufosinate 112.5 g ai/ha alone; 20-22 d
Source text: as §1, §2, §3, §4, §5

[22] = tested on: Kochia scoparia (kochia); test: Greenhouse postemergence herbicidal effect, kochia (KCHSC); settings: 20-22 d
Source text: as §1, §2, §3, §4, §5

[23] = tested on: Helianthus annuus (common sunflower); test: Greenhouse postemergence herbicidal effect, common sunflower (HELAN); settings: Example 5; Glufosinate 70 g ai/ha alone; 20-22 d
Source text: as §1, §2, §6, §5

[24] = Example 4, Glufosinate 112.5 g ai/ha alone
[25] = Example 5, Glufosinate 70 g ai/ha alone
[26] = Example 6, Glufosinate 112.5 g ai/ha alone

CP(=O)(O)CCC(N)C(=O)O (stereo not shown) [Glufosinate, 2-amino-4-(hydroxy(methyl)phosphinyl)butanoic acid]
% visual injury, Obs [1, 24]: 8% | % visual injury, Obs [1, 25]: 75% | % visual injury, Obs [1, 26]: 73% | % visual injury, Obs [2]: 35% | % visual injury, Obs [3]: 20% | % visual injury, Obs [4, 24]: 10% | % visual injury, Obs [4, 25]: 70% | % visual injury, Obs [4, 26]: 15% | % visual injury, Obs [5]: 13% | % visual injury, Obs [6]: 65% | % visual injury, Obs [7]: 33% | % visual injury, Obs [8]: 65% | % visual injury, Obs [9]: 25% | % visual injury, Obs [10]: 20% | % visual injury, Obs [11]: 68% | % visual injury, Obs [12]: 33% | % visual injury, Obs ([13]; Example 4): 5% | % visual injury, Obs ([13]; Example 6): 5% | % visual injury, Obs [14]: 80% | % visual injury, Obs [15]: 82% | % visual injury, Obs [16]: 73% | % visual injury, Obs [17]: 58% | % visual injury, Obs [18, 24]: 23% | % visual injury, Obs [18, 25]: 20% | % visual injury, Obs [19]: 30% | % visual injury, Obs [20]: 35% | % visual injury, Obs [21]: 53% | % visual injury, Obs [22, 24]: 10% | % visual injury, Obs [22, 25]: 15% | % visual injury, Obs [22, 26]: 25% | % visual injury, Obs [23]: 98%
